Experimental data: the NIST ThermoML archive (doi:10.1016/j.jct.2018.10.006)
Numbers after ± are expanded uncertainties.

Settings: for molar entropy / mass density: 101.33 kPa; for mass density: X-ray diffraction

O=P([O-])([O-])[O-].[Cs+].[Ni+2] [cesium nickel monophosphate]
Settings	mass density [kg/m3]	molar entropy [J/K/mol]
5 K, Crystal 2, Small (less than 1 g) adiabatic calorimetry	–	0.4664 ± 0.034
6 K, Crystal 2, Small (less than 1 g) adiabatic calorimetry	–	0.6618 ± 0.041
7 K, Crystal 2, Small (less than 1 g) adiabatic calorimetry	–	0.8896 ± 0.05
8 K, Crystal 2, Small (less than 1 g) adiabatic calorimetry	–	1.147 ± 0.058
9 K, Crystal 2, Small (less than 1 g) adiabatic calorimetry	–	1.438 ± 0.067
10 K, Crystal 2, Small (less than 1 g) adiabatic calorimetry	–	1.763 ± 0.083
15 K, Crystal 2, Small (less than 1 g) adiabatic calorimetry	–	3.941 ± 0.16
20 K, Crystal 2, Small (less than 1 g) adiabatic calorimetry	–	6.944 ± 0.14
25 K, Crystal 2, Small (less than 1 g) adiabatic calorimetry	–	10.43 ± 0.18
30 K, Crystal 2, Small (less than 1 g) adiabatic calorimetry	–	14.35 ± 0.25
35 K, Crystal 2, Small (less than 1 g) adiabatic calorimetry	–	18.52 ± 0.3
40 K, Crystal 2, Small (less than 1 g) adiabatic calorimetry	–	22.78 ± 0.36
45 K, Crystal 2, Small (less than 1 g) adiabatic calorimetry	–	27.1 ± 0.35
50 K, Crystal 2, Small (less than 1 g) adiabatic calorimetry	–	31.46 ± 0.39
60 K, Crystal 2, Small (less than 1 g) adiabatic calorimetry	–	40.28 ± 0.48
70 K, Crystal 2, Small (less than 1 g) adiabatic calorimetry	–	49.01 ± 0.57
80 K, Crystal 2, Small (less than 1 g) adiabatic calorimetry	–	57.49 ± 0.67
90 K, Crystal 2, Small (less than 1 g) adiabatic calorimetry	–	65.63 ± 0.76
100 K, Crystal 2, Small (less than 1 g) adiabatic calorimetry	–	73.47 ± 0.84
110 K, Crystal 2, Small (less than 1 g) adiabatic calorimetry	–	81.12 ± 0.91
120 K, Crystal 2, Small (less than 1 g) adiabatic calorimetry	–	88.55 ± 1
130 K, Crystal 2, Small (less than 1 g) adiabatic calorimetry	–	95.7 ± 1.1
140 K, Crystal 2, Small (less than 1 g) adiabatic calorimetry	–	102.6 ± 1.2
150 K, Crystal 2, Small (less than 1 g) adiabatic calorimetry	–	109.34 ± 1.2
160 K, Crystal 2, Small (less than 1 g) adiabatic calorimetry	–	115.9 ± 1.2
170 K, Crystal 2, Small (less than 1 g) adiabatic calorimetry	–	122.31 ± 1.3
180 K, Crystal 2, Small (less than 1 g) adiabatic calorimetry	–	128.54 ± 1.4
190 K, Crystal 2, Small (less than 1 g) adiabatic calorimetry	–	134.69 ± 1.4
200 K, Crystal 2, Small (less than 1 g) adiabatic calorimetry	–	140.68 ± 1.5
210 K, Crystal 2, Small (less than 1 g) adiabatic calorimetry	–	146.58 ± 1.6
220 K, Crystal 2, Small (less than 1 g) adiabatic calorimetry	–	152.32 ± 1.6
230 K, Crystal 2, Small (less than 1 g) adiabatic calorimetry	–	157.89 ± 1.7
240 K, Crystal 2, Small (less than 1 g) adiabatic calorimetry	–	163.38 ± 1.7
250 K, Crystal 2, Small (less than 1 g) adiabatic calorimetry	–	168.7 ± 1.7
260 K, Crystal 2, Small (less than 1 g) adiabatic calorimetry	–	173.94 ± 1.8
270 K, Crystal 2, Small (less than 1 g) adiabatic calorimetry	–	179.09 ± 1.9
273.15 K, Crystal 2, Small (less than 1 g) adiabatic calorimetry	–	180.67 ± 1.9
280 K, Crystal 2, Small (less than 1 g) adiabatic calorimetry	–	184.17 ± 1.9
290 K, Crystal 2, Small (less than 1 g) adiabatic calorimetry	–	189.15 ± 2
298 K, Crystal 2	4218.3 ± 10	–
298.15 K, Crystal 2, Small (less than 1 g) adiabatic calorimetry	–	193.23 ± 2
300 K, Crystal 2, Small (less than 1 g) adiabatic calorimetry	–	194.14 ± 2
310 K, Crystal 2, Small (less than 1 g) adiabatic calorimetry	–	199.13 ± 2.1
320 K, Crystal 2, Small (less than 1 g) adiabatic calorimetry	–	204.04 ± 2.2
330 K, Crystal 2, Small (less than 1 g) adiabatic calorimetry	–	208.86 ± 2.2
340 K, Crystal 2, Small (less than 1 g) adiabatic calorimetry	–	213.68 ± 9.6
350 K, Crystal 2, Small (less than 1 g) adiabatic calorimetry	–	218.42 ± 9.9
360 K, Crystal 2, Small (less than 1 g) adiabatic calorimetry	–	223.08 ± 10
370 K, Crystal 2, Small (less than 1 g) adiabatic calorimetry	–	227.82 ± 10
380 K, Crystal 2, Small (less than 1 g) adiabatic calorimetry	–	232.47 ± 11
382.8 K, Crystal 1, DSC	–	237.46 ± 17
382.8 K, Crystal 2, Small (less than 1 g) adiabatic calorimetry	–	233.72 ± 11
390 K, Crystal 1, DSC	–	240.7 ± 17
400 K, Crystal 1, DSC	–	245.19 ± 17
410 K, Crystal 1, DSC	–	249.52 ± 17
420 K, Crystal 1, DSC	–	253.76 ± 18
430 K, Crystal 1, DSC	–	257.83 ± 18
440 K, Crystal 1, DSC	–	261.82 ± 18
450 K, Crystal 1, DSC	–	265.73 ± 18
460 K, Crystal 1, DSC	–	269.64 ± 19
470 K, Crystal 1, DSC	–	273.38 ± 19
473 K, Crystal 1	4124 ± 22	–
480 K, Crystal 1, DSC	–	277.04 ± 19
490 K, Crystal 1, DSC	–	280.7 ± 20
500 K, Crystal 1, DSC	–	284.27 ± 20
510 K, Crystal 1, DSC	–	287.76 ± 20
520 K, Crystal 1, DSC	–	291.17 ± 20
530 K, Crystal 1, DSC	–	294.58 ± 20
540 K, Crystal 1, DSC	–	297.91 ± 21
550 K, Crystal 1, DSC	–	301.23 ± 21
560 K, Crystal 1, DSC	–	304.48 ± 21
570 K, Crystal 1, DSC	–	307.64 ± 21
573 K, Crystal 1	4090 ± 80	–
580 K, Crystal 1, DSC	–	310.79 ± 22
590 K, Crystal 1, DSC	–	313.87 ± 22
600 K, Crystal 1, DSC	–	316.86 ± 22
610 K, Crystal 1, DSC	–	319.86 ± 22
620 K, Crystal 1, DSC	–	322.85 ± 22
630 K, Crystal 1, DSC	–	325.76 ± 23
640 K, Crystal 1, DSC	–	328.67 ± 23
650 K, Crystal 1, DSC	–	331.58 ± 23
673 K, Crystal 1	4080 ± 80	–
773 K, Crystal 1	4040 ± 18	–
873 K, Crystal 1	4030 ± 160	–
973 K, Crystal 1	4000 ± 80	–
1073 K, Crystal 1	3980 ± 60	–

Settings	Triple point temperature [K]
Crystal 2, DSC	382.8 ± 0.8
